Measurements taken from patent EP0857483A1, “Substituted aminopyridines in the treatment of glucose metabolism disorders” (ELI LILLY AND COMPANY, priority 1997, dated 1998).

Key:
[1] = tested on: Zucker diabetic fatty rat (ZDF-DRT-fa); experiment: Plasma glucose in 6 week-old prediabetic Zucker diabetic fatty rats; format: in vivo; settings: value (SEM)
Description: (§1) The activity of the compounds of the present invention was determined by testing the efficacy in vivo in Zucker diabetic rats.
(§2) The Zucker diabetic fatty rat (ZDF-DRT-fa) is a classic rodent model of diabetes associated with obesity and insulin resistance, with tissue specific defects in insulin sensitivity similar to human patients with type II diabetes mellitus. This animal model at six weeks of age is normoglycemic, but glucose intolerant (Clark JB, Palmer CJ, and Shaw WN: The diabetic Zucker fatty rat, Proceeding of the Society for Experimental Bioloqy and Medicine 173, 68-75, 1983; and Peterson RG, Shaw WN, Neel M, Little LA, Eichburg J: Zucker diabetic fatty rat as a model for non-insulin dependent diabetes mellitus. ILAR News 32:16-19, 1990.) Between seven and eight weeks of age, plasma glucose levels rise as the pancreatic beta cells lose their ability to secrete sufficient insulin to compensate for insulin resistance. In an attempt to maintain plasma glucose in normal range, the pancreas is forced to secrete increasing amount of insulin, resulting in hyperinsulinemia (Bue JM and Shaw WN: ZDF-Drt-fa rat: A new model with marked susceptibility to dietary manipulation. Diabetes 40:865A, 1991). The ZDF rat is usually studied between eight and nine weeks of age when it is hyperglycemic, hyperinsulinemic, and hyperlipemic, in an attempt to halt further decline of pancreatic function. The present study was carried out in six weeks old animals (prediabetic). The purpose of this study was to determine whether moxonidine treatment will prevent or delay onset of diabetes in the six weeks old prediabetic ZDF rat.
(§3) To determine the impact of treatment with the substituted aminopyrimidines of Formula I on the progression of disease 6 week-old ZDF animals were grouped into the following categories, with 5 animals assigned to each group. Group 1 Control (5008 chow ad libitum) Group 2 Moxonidine (10 mg/kg/day) Group 3 Pair fed to correct for decrease in food consumption in 10 mg/kg/day group
(§4) Rats were housed one per plastic cage with bedding and had free access to water and Purina Formulalab 5008 Chow (except pair fed group). Because previous studies had indicated a reduction in food consumption with moxonidine treatment, body weight and food consumption were monitored daily, and a group of control animals was pair fed to moxonidine treated group. Blood samples were collected from the tail vein. Plasma glucose and insulin levels are monitored weekly.
(§5) Plasma glucose was measured by coupled hexokinase method on the IL Monarch System (Instrumentation Laboratory, Lexington, MA). Plasma insulin was determined with radioimmunoassay kit from Diagnostics Products Corporation (San Diego, CA) using rat insulin as a standard.
(§6) Plasma glucose and plasma insulin were monitored weekly. The results of these in vivo experiments are set forth below in Tables 1 and 2. The value in parenthesis following the plasma glucose value and plasma insulin value is the standard error of the mean.

[2] = tested on: Zucker diabetic fatty rat (ZDF-DRT-fa); experiment: Plasma insulin in 6 week-old prediabetic Zucker diabetic fatty rats; format: in vivo; settings: value (SEM)
Description: as §1, §2, §3, §4, §5, §6

[3] = tested on: Zucker diabetic fatty rat (ZDF-DRT-fa); experiment: Further study: plasma glucose in ZDF rats with dose reduction and withdrawal of treatment; format: in vivo
Description: as §3, §4, §5
A further study was carried out as described above, except that moxonidine treatment was reduced to 6.4 mg/kg/day for two days, followed by resumption of moxonidine treatment at 10 mg/kg/day for 13 days, and then stopping moxonidine treatment.

[4] = tested on: I1 receptors over α2 adrenergic receptors; settings: bovine RVLM; saturation binding; Ernsberger et al., J. Pharmacol. Exp. Ther., 264, 172-182 (1993); cited from earlier work

## COc1nc(C)nc(Cl)c1N=C1NCCN1 [Moxonidine, 4-chloro-N-(imidazoline-2-ylidene) -6-methoxy-2-methyl-5-pyrimidineamine]
[1]; Day 0, 10 mg/kg/day
  Plasma Glucose: 145.6 (2.4) mg/dl
[1]; Day 7, 10 mg/kg/day
  Plasma Glucose: 148.1 (13.8) mg/dl
[1]; Day 14, 10 mg/kg/day
  Plasma Glucose: 166.1 (11.2) mg/dl
[1]; Day 21, 10 mg/kg/day
  Plasma Glucose: 164.2 (8.0) mg/dl
[1]; Day 28, 10 mg/kg/day
  Plasma Glucose: 168.0 (12.6) mg/dl
[1]; Day 35, 10 mg/kg/day
  Plasma Glucose: 191.6 (8.2) mg/dl
[1]; Day 42, 10 mg/kg/day
  Plasma Glucose: 179.8 (6.1) mg/dl
[1]; Day 49, 10 mg/kg/day
  Plasma Glucose: 152.1 (8.7) mg/dl
[1]; Day 63, 10 mg/kg/day
  Plasma Glucose: 168.4 (12.6) mg/dl
[2]; Day 0, 10 mg/kg/day
  Plasma Insulin: 10.9 (0.9) ng/ml
[2]; Day 7, 10 mg/kg/day
  Plasma Insulin: 9.3 (1.0) ng/ml
[2]; Day 14, 10 mg/kg/day
  Plasma Insulin: 12.7 (1.4) ng/ml
[2]; Day 21, 10 mg/kg/day
  Plasma Insulin: 17.8 (1.2) ng/ml
[2]; Day 28, 10 mg/kg/day
  Plasma Insulin: 23.4 (1.8) ng/ml
[2]; Day 35, 10 mg/kg/day
  Plasma Insulin: 24.8 (1.4) ng/ml
[2]; Day 42, 10 mg/kg/day
  Plasma Insulin: 20.6 (0.7) ng/ml
[3]; Treatment period day 0, mox @ 10 m/k/d
  Plasma Glucose: 141.5333 mg/dL
[3]; Treatment period day 7, mox @ 10 m/k/d
  Plasma Glucose: 152.8917 mg/dL
[3]; Treatment period day 14, mox @ 10 m/k/d
  Plasma Glucose: 166.2528 mg/dL
[3]; Treatment period day 21, at this day reduced mox dose to 6.4 m/k/d
  Plasma Glucose: 172.1556 mg/dL
[3]; Treatment period day 23, after two days at 6.4 m/k/d, mox @ 10 m/k/d resumed
  Plasma Glucose: 254.0889 mg/dL
[3]; Treatment period day 28, mox @ 10 m/k/d
  Plasma Glucose: 251.4833 mg/dL
[3]; Treatment period day 36, stopped mox treatment
  Plasma Glucose: 242.5944 mg/dL
[3]; Treatment period day 42, 1 wk after mox is removed
  Plasma Glucose: 265.9556 mg/dL
[3]; Treatment period day 49, 2 wks after mox is removed
  Plasma Glucose: 410.425 mg/dL

## Clc1cccc(Cl)c1N=C1NCCN1 [clonidine]
[4]
  selectivity value (Ki at α2 sites in µM/Ki sites in µM): less than 4
